Entries after “also recorded” stand apart in the source; their conditions may differ. Read-outs that look alike come from different tables or passages of the source. No end group written: not given here.
Experiments:
AF64A-treated rats [1] = experiment: Two-way shuttle box avoidance, learning and retention tests (Example 3); assay type: in vivo, rat
AF64A-treated rats [2] = details: rat, in vivo; for Correct responses, % Learning test / Correct responses, % Retention test: po
cerebellar granule cells = experiment: βAP 25-35 toxicity assay in mature cerebellar granule cell cultures (Example 5); assay type: cell-based, rat; details: for protective effect against the toxicity of βAP 25-35 (in words): mature cultures, 8 DIV; for protection of neurons against βAP: compound at 25 μM; for increase of the amount of living CGC, compound alone: concentration range 25-200 μM
Experimental: FIG. 8. […] The difference in numbers of living neurons before and after 4 days of treatment were determined. The amount of viable neurons is expressed as mean (%) above viable in preliminary photography of the same place. Experiments were repeated 2-3 times (n=12-18). For graphical presentation, average data from representative experiments were converted to percentages of control groups viability. Results were expressed as a percentage of survival cells to compare with control ±SEM and were analyzed by a statistical test (ANOVA).
Cerebellar granule cells (CGC) were prepared from the postnatal rats (7-8 days old) by the following procedure based on the generally accepted methods (V. Gallo et al., J. Neurosci. 7:2203-2213, 1987). The pieces of cerebellum were digested with 0,25 mg/ml trypsin for 25 min. at 37° C. and incubated for 5 min. in 0.1% soybean trypsin inhibitor. After washing, cells were dissociated by triturating. Following two centrifugation-resuspension steps, the cells were plated at a density of 2.5-[…] cells per ml on polylysine-coated 24-well plates (Corning) and maintained at 37° C. in a humidified incubator with 5% CO2/95% room air. The medium was composed of Eagle's minimal essential medium and fetal calf serum (10%) supplemented with 20 mM potassium chloride, 10 mM glucose, 2 mM glutainine, 50 μg/ml gentamycin sulfate. Cytosine arabinoside (10 μM) was added 24-48 h later to prevent the replication of non-neuronal cells.
The βAP 25-35 (Bachem) was dissolved by sonication in sterilized distilled water at a concentration of 1 mM. […]
Neuronal viability was evaluated by morphometric cell counting using the presence of neurites and smooth, round cell bodies as criteria of survival. The cells were examined under the phase-contrast microscope Axiovert 25C with videocamera and Software miroMedia PCTV VideoCap program for image scanning and photography. Cell survival was quantified by counting the number of viable neurons in premarked microscope fields prior to, and 4 days after the exposure. The difference in numbers of living neurons before and after 4 days of treatment was determined.
For each experiment, we used 4-6 separate wells of a 24-well multiwell plate for control (with 0.05% DMSO)and for each concentration of compound or composition of compound with βAP. Each well equals one observation, (average of 25 cells per microscope field). Experiments are repeated 2-3 times (n=12-18). For graphical presentation, average data from representative experiments were expressed as a percentage of survival cells in comparison with control ±SEM and analyzed by ANOVA and Student t-test.

mouse = experiment: Mouse tail suspension test; details: in vivo
From the text: The combination of cognition-enhancing and antidepressant effect in the one and the same compound might be of additional therapeutic advantage.

Antihypertensive effect = details: in vivo
AF64A-treated rats [3] = experiment: Morris water maze test; assay type: in vivo, rat; details: 0.3 mg/kg daily orally; day 1 and day 5
Experimental: FIGS. 7A and 7B Average swim latency made by rats, when trained 1 (A) and […] to find a platform in Morris water maze test. […] Results were estimated as time required for rat felt into a water pool to reach a platform;**−[…], ***−p<0.001 vs. AF64A-treated group, where p is the significance level (post hoc ANOVA).
The test was started 2 days after the last injection of tested compounds and was performed daily for the period from 3 to 9 day. Round swimming pool (1,8 m diameter and 0,45 m high) with 22° C. water was placed in the center of the room. The platform was located 1 cm below the surface of the water. Starting points for the swims were at the cardinal compass points (N, S, E, W), which were selected in a semi-random fashion for each rat on each trial.
Each experimental group, i.e., control, AF64A-treated groups and groups for each concentration of the tested compounds, contained 9-11 rats. Results were estimated as time required for rat felt into a water pool to reach a platform (a sum of two trials from different position every day). Data were analyzed as the mean±SEM. (ANOVA followed by post hoc comparisons).

[4] = tested on: Cerebellar granule cells (CGC); experiment: Survival of cerebellar granule cells with amyloid beta-protein (Example 4); assay type: cell-based, rat; design: dose or concentration left out as unconfirmed; details: 72 hr
Experimental: Cerebellar granule cells (CGC) obtained from brains of 8-day rat pups were maintained in culture. The amyloid beta-protein (βAP) and/or NAS derivative (DNAS-18) were added to CGC for a period of 72 hr. Vehicle solution was added to CGC in the control experiments. Survival of CGS was assessed by lactate dehydrogenase method and by visual counting of living neurons.

rats = experiment: Observation of sedative effect during oral treatment
[5] = in rats; Oxenkrug et al. 1994; cited from earlier work
[6] = 3 mg/kg p.o. for 12 days after AF64A i.c.v. 3 nmol/ventricle

Compound | cognitive performance of AF64A-treated rats in active avoidance and in water-maze tests (summary) (AF64A-treated rats [2]) | performance in learning paradigm of the active avoidance test (in words) (AF64A-treated rats [2]) | performance in retention paradigm of the active avoidance test (in words) (AF64A-treated rats [2]) | Correct responses, % Learning test (AF64A-treated rats [2]; 3 mg/kg) | Correct responses, % Retention test (AF64A-treated rats [2]; 3 mg/kg) | protective effect against the toxicity of βAP 25-35 (in words) (cerebellar granule cells; 4 days) | antidepressant-like activity (decreasing the duration of immobility) (mouse) | antihypertensive effect (Antihypertensive effect) | melting point | Correct responses, % Learning test (AF64A-treated rats [2]; 0.3 mg/kg) | Correct responses, % Retention test (AF64A-treated rats [2]; 0.3 mg/kg) | Correct responses, % Learning test (AF64A-treated rats [2]; 1 mg/kg) | Correct responses, % Retention test (AF64A-treated rats [2]; 1 mg/kg) | response time (swim latency to platform) (AF64A-treated rats [3]) | protection of neurons against βAP (cerebellar granule cells; 25 μM βAP) | sedative effect (rats; 0.3 mg/kg orally daily) | comparative efficacy in preventing βAP toxicity (cerebellar granule cells) | increase of the amount of living CGC, compound alone (cerebellar granule cells) | also measured
CCC(=O)NCCc1c[nH]c2ccc(OCc3ccccc3)cc12 [CA-15, N-[2-(5-Benzyloxyindol-3-yl)ethyl]propanamide] | improve cognitive performance | strong tendency (although not reaching the level of statistical significance) towards the improvement | improved the performance | 61.4 ± 7.4% | 68.0 ± 8.4 % | exerted a neuroprotective effect; also recorded: Protective effect | antidepressant-like effects | antihypertensive | 110 to 112 °C |  |  |  |  |  |  |  |  |  | duration of cognition-enhancing effect in retention test after the learning trials (AF64A-treated rats [1]; 3 mg/kg p.o. for 12 days after AF64A): ≥ 10 days; number of correct responses, learning test (in words) (AF64A-treated rats [1]; [6]): almost completely restored; number of correct responses, retention test (in words) (AF64A-treated rats [1]; [6]): almost completely restored
CCCC(=O)NCCc1c[nH]c2ccc(OCc3ccccc3)cc12 [CA-18, N-[2-(5-Benzyloxyindol-3-yl)ethyl] butanamide] | improve cognitive performance | completely restored; also recorded: strong tendency (although not reaching the level of statistical significance) towards the improvement |  |  |  | exerted a neuroprotective effect | antidepressant-like effects | antihypertensive | 112 to 114 °C | 84.0 ± 5.4 % | 82.7 ± 5.0 % | 50.0 ± 8.8% | 48.1 ± 9.8% | decreased the response time | 93% | did not induced sedation |  |  | viability of neurons, compound added to βAP [4]: 98±4 % of control; increase of viability of CGC neurons, compound alone ([4]; mean±S.E.): 18±3 % of control; antidepressant-like activity, comparison CA-18 with CA-15 (mouse): more pronounced; sedative effect (rats; 1 mg/kg orally daily): did not induced sedation
COc1ccc2[nH]cc(CCNC(C)=O)c2c1 [Melatonin, reference compound] | improve cognitive performance | completely restored; also recorded: significant but somewhat less pronounced | completely restored; also recorded: significant but somewhat less pronounced | 75.4 ± 7.0 % | 72.2 ± 5.8 % | Protective effect |  |  |  | 79.0 ± 6.0 % | 83.2 ± 3.2 % |  |  | decreased the response time | 90% | did not induced sedation | less effective | 3-10 % of control | protective effect against the toxicity of βAP 25-35 (in words) (cerebellar granule cells; 4 days, listed as melatonin): exerted a neuroprotective effect; onset of sedative effect (rats; 3 mg/kg orally daily): 3-4 days of treatment; sedative effect (rats; 3 mg/kg orally daily): unspecified sedative effect
CC(=O)NCCc1c[nH]c2ccc(O)cc12 [NAS, N-acetylserotonin] | improve cognitive performance | improved the performance | not in retention |  |  | exerted a neuroprotective effect; also recorded: Protective effect |  |  |  |  |  | 65.4 ± 8.8 % | 56.0 ± 9.2 % |  |  |  | strongest | 16-28 % of control | viable neurons, co-incubation with βAP (cerebellar granule cells; 25 μM compound): 101±5 % of control; conversion of NAS into melatonin [5]: rapidly converted into melatonin
GSNKGAIIGLM [βAP, reference compound] |  |  |  |  |  |  |  |  |  |  |  |  |  |  |  |  |  |  | viability of CGC neurons with βAP alone ([4]; βAP, mean±S.E.): 56±8 % of control; viability of neurons exposed to βAP alone (cerebellar granule cells; 25 μM βAP, 4 days, mean ±SEM): 58±7 % of control

Reference: patent publication US6353015B1, “Method of treating neurodegenerative disorders” (St. Elizabeth's Medical Center, priority 1998, dated 2002)
